Measurements as given in PMC4138103 (PLoS ONE, 2014).
Like-named read-outs stand apart in the source and are kept apart here.

Tested on: Sprague-Dawley rats
Assay: Hematology
Format: in vivo, Rattus norvegicus
Parameters: HCT, Hematocrit: unit not given here
Settings: for Emax: Rattus norvegicus; for Basophils / Eosinophils / HB, Hemoglobin / HCT, Hematocrit / Lymphocytes / MCH, Mean corpuscular hemoglobin / MCHC, Mean corpuscular hemoglobin concentration / MCV, Mean corpuscular volume / MPV, Mean platelet volume / Monocytes / Neutrophils / PDW, Platelet distribution width / PLT, Platelet count / RBC, Red cell count / WBC, Leukocyte total count: group mean
Protocol: Basic blood picture analysis was carried out using Advia 120 analyzer (Bayer, later Siemens Diagnostic Division, Dublin, Ireland). This analysis includes red cell count (RBC), hemoglobin (HB), hematocrit (HCT), platelet count (PLT), leukocyte total count (WBC) and differential count as well as the calculated red cell and platelet parameters mean corpuscular volume (MCV), mean corpuscular hemoglobin (MCH), mean corpuscular hemoglobin concentration (MCHC), red cell distribution width - standard deviation (RDW-SD), platelet distribution width (PDW) and mean platelet volume (MPV). Blood cell counting is based on isovolumetric sphering and fixing the cells, stains and light scattering. Visual leukocyte differential counting was done after May-Grünwald-Giemsa staining.
Data were also analyzed using the BMD method, which is based on dose-response modeling of the full data set using a nested family of exponential and Hill models. The analyses were done on data of males and females combined, using sex as a covariate. […] In that case, different Critical Effect Doses (CEDs) and CEDs at the lowest bound of the confidence interval (CED-L) were generated for each sex. If no difference between sexes is detected, a CED and CED-Ls for the combined data is generated. However, this was also done if the curve fits are close, and separate analyses for males and females were then performed manually. CEDs and CED-Ls were calculated at the predefined Critical Effect Size (CES) of 5% (EFSA standard) or 10%.

[1] = F, CES 5%, model E2, adipose tissue concentration based
[2] = F, CES 5%, model E3, adipose tissue concentration based
[3] = F, CES 10%, model E2, adipose tissue concentration based
[4] = F, CES 10%, model E3, adipose tissue concentration based
[5] = M, CES 5%, model E4, adipose tissue concentration based
[6] = M, CES 10%, model E4, adipose tissue concentration based
[7] = females, total dose 3 mg/kg bw, N=5
[8] = females, total dose 10 mg/kg bw, N=5
[9] = females, total dose 30 mg/kg bw, N=5
[10] = females, total dose 100 mg/kg bw, N=5
[11] = females, total dose 300 mg/kg bw, N=5
[12] = females, total dose 1000 mg/kg bw, N=5
[13] = females, total dose 1000 mg/kg bw, N=5, p<0.01 vs. control
[14] = females, total dose 1700 mg/kg bw, N=5

SMILES: Clc1cc(Cl)c(-c2cc(Cl)c(Cl)c(Cl)c2Cl)cc1Cl [PCB 180, 2,2′,3′,4,4′,5,5′-heptachlorobiphenyl]
- CED, Hematocrit [1]: 5430 µg/g lipid
- CED, Hemoglobin [1]: 4840 µg/g lipid
- CED, Red blood cell count [1]: 4170 µg/g lipid
- CED-L, Hematocrit [1]: 4178 µg/g lipid
- CED-L, Hemoglobin [1]: 3889 µg/g lipid
- CED-L, Red blood cell count [1]: 3327 µg/g lipid
- CED, Red cell distribution width - SD [2]: 8370 µg/g lipid
- CED-L, Red cell distribution width - SD [2]: 5756 µg/g lipid
- CED, Hematocrit [3]: 11100 µg/g lipid
- CED, Hemoglobin [3]: 9930 µg/g lipid
- CED, Red blood cell count [3]: 8560 µg/g lipid
- CED-L, Hematocrit [3]: 8582 µg/g lipid
- CED-L, Hemoglobin [3]: 7989 µg/g lipid
- CED-L, Red blood cell count [3]: 6834 µg/g lipid
- CED, Red cell distribution width - SD [4]: 10700 µg/g lipid
- CED-L, Red cell distribution width - SD [4]: 9281 µg/g lipid
- CED, Hematocrit [5]: 601 µg/g lipid
- CED, Hemoglobin [5]: 872 µg/g lipid
- CED, Platelet count [5]: 156 µg/g lipid
- CED, Red blood cell count [5]: 598 µg/g lipid
- CED-L, Hematocrit [5]: 247 µg/g lipid
- CED-L, Hemoglobin [5]: 227 µg/g lipid
- CED-L, Platelet count [5]: 36.4 µg/g lipid
- CED-L, Red blood cell count [5]: 337 µg/g lipid
- CED, Hematocrit [6]: 2090 µg/g lipid
- CED, Platelet count [6]: 539 µg/g lipid
- CED, Red blood cell count [6]: 1890 µg/g lipid
- Emax (Erythrocyte, F, model E2, controls vs high dose according to the fitted model, read-out: Maximum response, Red blood cell count): -13%
- Emax (Erythrocyte, females, controls vs high dose, fitted model, read-out: Red blood cell count, Maximum response): -12.8%
- Emax (Erythrocyte, males, controls vs high dose, fitted model, read-out: Red blood cell count, Maximum response): -12.5%
- Emax (Erythrocyte, model E4, controls vs high dose according to the fitted model, read-out: Maximum response, Red blood cell count): -12.4%
- Emax (F, model E2, controls vs high dose according to the fitted model, read-out: Maximum response, Hematocrit): -10.1%
- Emax (F, model E2, controls vs high dose according to the fitted model, read-out: Maximum response, Hemoglobin): -11.3%
- Emax (F, model E3, controls vs high dose according to the fitted model, read-out: Maximum response, Red cell distribution width - SD): 11.1%
- Emax (Platelet, males, controls vs high dose, fitted model, read-out: Platelet count, Maximum response): 12%
- Emax (Platelet, model E4, controls vs high dose according to the fitted model, read-out: Maximum response, Platelet count): 12%
- Emax (females, controls vs high dose, fitted model, read-out: Hematocrit, Maximum response): -10%
- Emax (females, controls vs high dose, fitted model, read-out: Hemoglobin, Maximum response): -11.1%
- Emax (females, controls vs high dose, fitted model, read-out: Red cell distribution width - SD, Maximum response): 11.5%
- Emax (males, controls vs high dose, fitted model, read-out: Hematocrit, Maximum response): -11.8%
- Emax (males, controls vs high dose, fitted model, read-out: Hemoglobin, Maximum response): -8.6%
- Emax (model E4, controls vs high dose according to the fitted model, read-out: Maximum response, Hematocrit): -11.7%
- Emax (model E4, controls vs high dose according to the fitted model, read-out: Maximum response, Hemoglobin): -8.59%
- Basophils [7]: 0.0%
- Eosinophils [7]: 1.2%
- HB, Hemoglobin [7]: 165 g/L
- HCT, Hematocrit [7]: 0.44
- Lymphocytes [7]: 88.4%
- MCH, Mean corpuscular hemoglobin [7]: 23.1 pg
- MCHC, Mean corpuscular hemoglobin concentration [7]: 371 g/L
- MCV, Mean corpuscular volume [7]: 62.3 fL
- MPV, Mean platelet volume [7]: 6.74 fL
- Monocytes [7]: 2.6%
- Neutrophils [7]: 7.8%
- PDW, Platelet distribution width [7]: 7.26 fL
- PLT, Platelet count [7]: 8.17e+11 L⁻¹
- RBC, Red cell count [7]: 7.15e+12 L⁻¹
- WBC, Leukocyte total count [7]: 1.422e+10 L⁻¹
- Basophils [8]: 0.0%
- Eosinophils [8]: 0.2%
- HB, Hemoglobin [8]: 166 g/L
- HCT, Hematocrit [8]: 0.45
- Lymphocytes [8]: 92.0%
- MCH, Mean corpuscular hemoglobin [8]: 23.0 pg
- MCHC, Mean corpuscular hemoglobin concentration [8]: 372 g/L
- MCV, Mean corpuscular volume [8]: 61.8 fL
- MPV, Mean platelet volume [8]: 6.72 fL
- Monocytes [8]: 2%
- Neutrophils [8]: 5.8%
- PDW, Platelet distribution width [8]: 7.20 fL
- PLT, Platelet count [8]: 8.05e+11 L⁻¹
- RBC, Red cell count [8]: 7.23e+12 L⁻¹
- WBC, Leukocyte total count [8]: 1.276e+10 L⁻¹
- Basophils [9]: 0.0%
- Eosinophils [9]: 1.6%
- HB, Hemoglobin [9]: 165 g/L
- HCT, Hematocrit [9]: 0.45
- Lymphocytes [9]: 88.8%
- MCH, Mean corpuscular hemoglobin [9]: 22.9 pg
- MCHC, Mean corpuscular hemoglobin concentration [9]: 368 g/L
- MCV, Mean corpuscular volume [9]: 62.2 fL
- MPV, Mean platelet volume [9]: 6.74 fL
- Monocytes [9]: 1.4%
- Neutrophils [9]: 8.2%
- PDW, Platelet distribution width [9]: 7.32 fL
- PLT, Platelet count [9]: 8.47e+11 L⁻¹
- RBC, Red cell count [9]: 7.22e+12 L⁻¹
- WBC, Leukocyte total count [9]: 1.544e+10 L⁻¹
- Basophils [10]: 0.0%
- Eosinophils [10]: 0.8%
- HB, Hemoglobin [10]: 169 g/L
- HCT, Hematocrit [10]: 0.46
- Lymphocytes [10]: 90.8%
- MCH, Mean corpuscular hemoglobin [10]: 22.8 pg
- MCHC, Mean corpuscular hemoglobin concentration [10]: 370 g/L
- MCV, Mean corpuscular volume [10]: 61.6 fL
- MPV, Mean platelet volume [10]: 6.72 fL
- Monocytes [10]: 1.4%
- Neutrophils [10]: 7.0%
- PDW, Platelet distribution width [10]: 7.14 fL
- PLT, Platelet count [10]: 8.74e+11 L⁻¹
- RBC, Red cell count [10]: 7.4e+12 L⁻¹
- WBC, Leukocyte total count [10]: 1.654e+10 L⁻¹
- Basophils [11]: 0.0%
- Eosinophils [11]: 1.2%
- HB, Hemoglobin [11]: 166 g/L
- HCT, Hematocrit [11]: 0.45
- Lymphocytes [11]: 90.6%
- MCH, Mean corpuscular hemoglobin [11]: 23.1 pg
- MCHC, Mean corpuscular hemoglobin concentration [11]: 371 g/L
- MCV, Mean corpuscular volume [11]: 62.2 fL
- MPV, Mean platelet volume [11]: 6.98 fL
- Monocytes [11]: 2.2%
- Neutrophils [11]: 6.0%
- PDW, Platelet distribution width [11]: 7.58 fL
- PLT, Platelet count [11]: 8.2e+11 L⁻¹
- RBC, Red cell count [11]: 7.19e+12 L⁻¹
- WBC, Leukocyte total count [11]: 1.448e+10 L⁻¹
- Basophils [12]: 0.0%
- Eosinophils [12]: 1.2%
- Lymphocytes [12]: 89.8%
- MCH, Mean corpuscular hemoglobin [12]: 23.1 pg
- MCHC, Mean corpuscular hemoglobin concentration [12]: 366 g/L
- MCV, Mean corpuscular volume [12]: 63.2 fL
- MPV, Mean platelet volume [12]: 6.74 fL
- Monocytes [12]: 3.2%
- Neutrophils [12]: 5.8%
- PDW, Platelet distribution width [12]: 7.26 fL
- PLT, Platelet count [12]: 8.69e+11 L⁻¹
- WBC, Leukocyte total count [12]: 1.392e+10 L⁻¹
- HB, Hemoglobin [13]: 154 g/L
- RBC, Red cell count [13]: 6.66e+12 L⁻¹
- HCT, Hematocrit (females, total dose 1000 mg/kg bw, N=5, p<0.05 vs. control): 0.42
- Basophils [14]: 0.0%
- Eosinophils [14]: 1.0%
- Lymphocytes [14]: 87.6%
- MCH, Mean corpuscular hemoglobin [14]: 23.3 pg
- MCHC, Mean corpuscular hemoglobin concentration [14]: 366 g/L
- MCV, Mean corpuscular volume [14]: 63.7 fL
- MPV, Mean platelet volume [14]: 6.68 fL
- Monocytes [14]: 2.2%
- Neutrophils [14]: 9.2%
- PDW, Platelet distribution width [14]: 7.18 fL
- PLT, Platelet count [14]: 8.28e+11 L⁻¹
- WBC, Leukocyte total count [14]: 1.35e+10 L⁻¹
- HB, Hemoglobin (females, total dose 1700 mg/kg bw, N=5, p<0.001 vs. control): 150 g/L
